Counter-ions that a name gives are not always drawn.
The compounds below were run against T1, human V1a receptor (Homo sapiens, UniProt P37288) (assay: human V1a receptor binding studies (SPA, 3H-Vasopressin, membranes of transfected HEK293 cells)). Conditions: displacement of 3H-Vasopressin, HEK293 cell membranes, 1 h at room temperature; Ki by Cheng-Prussoff equation; read-out: pKi (hV1a) (converted).
T1 construct: expressed in transfected cells; host or cells: HEK293 cells, transiently transfected; membrane preparation
Experimental: The human V1a receptor was cloned by RT-PCR from total human liver RNA. The coding sequence was subcloned in an expression vector after sequencing to confirm the identity of the amplified sequence. […] Cell membranes were prepared from HEK293 cells transiently transfected with the expression vector and grown in 20 liter fermenters with the following protocol.
50 g of cells are resuspended in 30 ml freshly prepared ice cold Lysis buffer (50 mM HEPES, 1 mM EDTA, 10 mM magnesium dichloride adjusted to pH=7.4+complete cocktail of protease inhibitor (Roche Diagnostics)). Homogenized with Polytron for 1 min and sonicated on ice for 2×2 minutes at 80% intensity (Vibracell sonicator). The preparation is centrifuged 20 min at 500 g at 4° C., the pellet is discarded and the supernatant centrifuged 1 hour at 43'000 g at 4° C. (19'000 rpm). The pellet is resuspended in 12.5 ml Lysis buffer+12.5 ml Sucrose 20% and homogenized using a Polytron for 1-2 min. The protein concentration is determined by the Bradford method and aliquots are stored at −80° C. until use. For binding studies 60 mg Yttrium silicate SPA beads (Amersham) are mixed with an aliquot of membrane in binding buffer (50 mM Tris, 120 mM sodium chloride, 5 mM potassium chloride, 2 mM Calcium dichloride, 10 mM magnesium dichloride) for 15 minutes with mixing. 50 μl of bead/membrane mixture is then added to each well of a 96 well plate, followed by 50 μl of 4 nM 3H-Vasopressin (American Radiolabeled Chemicals). For total binding measurement 100 μl of binding buffer are added to the respective wells, for non-specific binding 100 μl of 8.4 mM cold vasopressin and for compound testing 100 μl of a serial dilution of each compound in 2% dimethyl sulfoxide. The plate is incubated 1 h at room temperature, centrifuged […] at 1000 g and counted on a Packard Top-Count. Non-specific binding counts are subtracted from each well and data is normalized to the maximum specific binding set at 100%. To calculate an IC 50 the curve is fitted using a non-linear regression model (XLfit) and the Ki is calculated using the Cheng-Prussoff equation.

T1 sequence (P37288 whole entry): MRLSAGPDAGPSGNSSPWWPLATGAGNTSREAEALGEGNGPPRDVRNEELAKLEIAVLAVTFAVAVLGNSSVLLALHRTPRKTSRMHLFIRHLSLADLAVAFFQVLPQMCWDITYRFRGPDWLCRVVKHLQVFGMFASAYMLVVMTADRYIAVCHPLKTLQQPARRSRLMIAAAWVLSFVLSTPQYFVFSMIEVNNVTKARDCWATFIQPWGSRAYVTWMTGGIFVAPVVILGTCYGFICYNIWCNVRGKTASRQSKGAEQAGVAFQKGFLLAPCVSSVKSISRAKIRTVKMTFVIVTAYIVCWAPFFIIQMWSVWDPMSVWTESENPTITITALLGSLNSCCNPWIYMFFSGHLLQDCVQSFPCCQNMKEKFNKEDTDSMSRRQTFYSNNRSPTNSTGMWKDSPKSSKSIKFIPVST

SMILES	Ki [nM]
CC(C)(C)OC(=O)N1Cc2cc(Cl)ccc2-n2c(nnc2[C@H]2CC[C@H](Oc3ccccc3)CC2)C1 [Example 1, trans-8-Chloro-1-(4-phenoxy-cyclohexyl)-4H,6H-2,3,5,10b-tetraaza-benzoazulene-5-carboxylic acid tert-butyl ester]	3.24
Clc1ccc2c(c1)CNCc1nnc([C@H]3CC[C@H](Oc4ccccc4)CC3)n1-2 [Example 2, trans-8-Chloro-1-(4-phenoxy-cyclohexyl)-5,6-dihydro-4H-2,3,5,10b-tetraaza-benzoazulene hydrochloride]	4.37
CN1Cc2cc(Cl)ccc2-n2c(nnc2[C@H]2CC[C@H](Oc3ccccc3)CC2)C1 [Example 3, trans-8-Chloro-5-methyl-1-(4-phenoxy-cyclohexyl)-5,6-dihydro-4H-2,3,5,10b-tetraaza-benzo[e]azulene]	1.58
CC(=O)N1Cc2cc(Cl)ccc2-n2c(nnc2[C@H]2CC[C@H](Oc3ccccc3)CC2)C1 [Example 4, trans-1-[8-Chloro-1-(4-phenoxy-cyclohexyl)-4H,6H-2,3,5,10b-tetraaza-benzoazulen-5-yl]-ethanone]	1.41
CS(=O)(=O)N1Cc2cc(Cl)ccc2-n2c(nnc2[C@H]2CC[C@H](Oc3ccccc3)CC2)C1 [Example 5, trans-8-Chloro-5-methanesulfonyl-1-(4-phenoxy-cyclohexyl)-5,6-dihydro-4H-2,3,5,10b-tetraaza-benzoazulene]	1.7
OCCN1Cc2cc(Cl)ccc2-n2c(nnc2[C@H]2CC[C@H](Oc3ccccc3)CC2)C1 [Example 6, trans-2-[8-Chloro-1-(4-phenoxy-cyclohexyl)-4H,6H-2,3,5,10b-tetraaza-benzoazulen-5-yl]-ethanol]	1.58
CC(C)N1Cc2cc(Cl)ccc2-n2c(nnc2[C@H]2CC[C@H](Oc3ccccc3)CC2)C1 [Example 7, trans-8-Chloro-5-isopropyl-1-(4-phenoxy-cyclohexyl)-5,6-dihydro-4H-2,3,5,10b-tetraaza-benzoazulene]	1.7
CN(C)S(=O)(=O)N1Cc2cc(Cl)ccc2-n2c(nnc2[C@H]2CC[C@H](Oc3ccccc3)CC2)C1 [Example 8, trans-8-Chloro-1-(4-phenoxy-cyclohexyl)-4H,6H-2,3,5,10b-tetraaza-benzoazulene-5-sulfonic acid dimethylamide]	2
Clc1ccc2c(c1)CN(Cc1ccccn1)Cc1nnc([C@H]3CC[C@H](Oc4ccccc4)CC3)n1-2 [Example 9, trans-8-Chloro-1-(4-phenoxy-cyclohexyl)-5-pyridin-2-ylmethyl-5,6-dihydro-4H-2,3,5,10b-tetraaza-benzoazulene]	1.82
CN(C)CC(=O)N1Cc2cc(Cl)ccc2-n2c(nnc2[C@H]2CC[C@H](Oc3ccccc3)CC2)C1 [Example 10, trans-1-[8-Chloro-1-(4-phenoxy-cyclohexyl)-4H,6H-2,3,5,10b-tetraaza-benzoazulen-5-yl]-2-dimethylamino-ethanone]	2.09
CC(C)(C)OC(=O)N1Cc2cc(F)ccc2-n2c(nnc2[C@H]2CC[C@H](Oc3ccccc3)CC2)C1 [Example 11, trans-8-Fluoro-1-(4-phenoxy-cyclohexyl)-4H,6H-2,3,5,10b-tetraaza-benzo[e]azulene-5-carboxylic acid tert-butyl ester]	5.5
CN1Cc2cc(F)ccc2-n2c(nnc2[C@H]2CC[C@H](Oc3ccccc3)CC2)C1 [Example 13, trans-8-Fluoro-5-methyl-1-(4-phenoxy-cyclohexyl)-5,6-dihydro-4H-2,3,5,10b-tetraaza-benzoazulene]	5.37
CC(C)(C)OC(=O)N1Cc2cc(Cl)ccc2-n2c(nnc2[C@H]2CC[C@@H](Oc3ccccc3)CC2)C1 [Example 14, cis-8-Chloro-1-(4-phenoxy-cyclohexyl)-4H,6H-2,3,5,10b-tetraaza-benzoazulene-5-carboxylic acid tert-butyl ester]	9.33
CN1Cc2cc(Cl)ccc2-n2c(nnc2[C@H]2CC[C@@H](Oc3ccccc3)CC2)C1 [Example 16, cis-8-Chloro-5-methyl-1-(4-phenoxy-cyclohexyl)-5,6-dihydro-4H-2,3,5,10b-tetraaza-benzoazulene]	2.88
CC(C)(C)OC(=O)N1Cc2cc(Cl)ccc2-n2c(nnc2[C@H]2CC[C@H](Oc3ccc(F)cc3)CC2)C1 [Example 17, trans-8-Chloro-1-[4-(4-fluoro-phenoxy)-cyclohexyl]-4H,6H-2,3,5,10b-tetraaza-benzoazulene-5-carboxylic acid tert-butyl ester]	3.72
Fc1ccc(O[C@H]2CC[C@H](c3nnc4n3-c3ccc(Cl)cc3CNC4)CC2)cc1 [Example 18, trans-8-Chloro-1-[4-(4-fluoro-phenoxy)-cyclohexyl]-5,6-dihydro-4H-2,3,5,10b-tetraaza-benzo[e]azulene hydrochloride]	9.55
CN1Cc2cc(Cl)ccc2-n2c(nnc2[C@H]2CC[C@H](Oc3ccc(F)cc3)CC2)C1 [Example 19, trans-8-Chloro-1-[4-(4-fluoro-phenoxy)-cyclohexyl]-5-methyl-5,6-dihydro-4H-2,3,5,10b-tetraaza-benzoazulene]	3.09
CC(C)(C)OC(=O)N1Cc2cc(Cl)ccc2-n2c(nnc2[C@H]2CC[C@H](Oc3ccc(C#N)cc3)CC2)C1 [Example 20, trans-8-Chloro-1-[4-(4-cyano-phenoxy)-cyclohexyl]-4H,6H-2,3,5,10b-tetraaza-benzo[e]azulene-5-carboxylic acid tert-butyl ester]	7.76
CN1Cc2cc(Cl)ccc2-n2c(nnc2[C@H]2CC[C@H](Oc3ccc(C#N)cc3)CC2)C1 [Example 22, trans-4-[4-(8-Chloro-5-methyl-5,6-dihydro-4H-2,3,5,10b-tetraaza-benzo[e]azulen-1-yl)-cyclohexyloxy]-benzonitrile]	8.91
CC(C)(C)OC(=O)N1Cc2cc(Cl)ccc2-n2c(nnc2[C@H]2CC[C@H](Oc3ccc(C(F)(F)F)cc3)CC2)C1 [Example 23, trans-8-Chloro-1-[4-(4-trifluoromethyl-phenoxy)-cyclohexyl]-4H,6H-2,3,5,10b-tetraaza-benzo[e]azulene-5-carboxylic acid tert-butyl ester]	9.12
CC(C)(C)OC(=O)N1Cc2cc(Cl)ccc2-n2c(nnc2[C@H]2CC[C@H](Oc3cccc(Cl)c3)CC2)C1 [Example 26, trans-8-Chloro-1-[4-(3-chloro-phenoxy)-cyclohexyl]-4H,6H-2,3,5,10b-tetraaza-benzoazulene-5-carboxylic acid tert-butyl ester]	4.17
CN1Cc2cc(Cl)ccc2-n2c(nnc2[C@H]2CC[C@H](Oc3cccc(Cl)c3)CC2)C1 [Example 28, trans-8-Chloro-1-[4-(3-chloro-phenoxy)-cyclohexyl]-5-methyl-5,6-dihydro-4H-2,3,5,10b-tetraaza-benzoazulene]	3.09
COc1cccc(O[C@H]2CC[C@H](c3nnc4n3-c3ccc(Cl)cc3CN(C(=O)OC(C)(C)C)C4)CC2)c1 [Example 29, trans-8-Chloro-1-[4-(3-methoxy-phenoxy)-cyclohexyl]-4H,6H-2,3,5,10b-tetraaza-benzoazulene-5-carboxylic acid tert-butyl ester]	4.68
COc1cccc(O[C@H]2CC[C@H](c3nnc4n3-c3ccc(Cl)cc3CNC4)CC2)c1 [Example 30, trans-8-Chloro-1-[4-(3-methoxy-phenoxy)-cyclohexyl]-5,6-dihydro-4H-2,3,5,10b-tetraaza-benzo[e]azulene hydrochloride]	3.31
COc1cccc(O[C@H]2CC[C@H](c3nnc4n3-c3ccc(Cl)cc3CN(C)C4)CC2)c1 [Example 31, trans-8-Chloro-1-[4-(3-methoxy-phenoxy)-cyclohexyl]-5-methyl-5,6-dihydro-4H-2,3,5,10b-tetraaza-benzoazulene]	2.09
CN1Cc2cc(Cl)ccc2-n2c(nnc2[C@H]2CC[C@H](Oc3cccc(C#N)c3)CC2)C1 [Example 34, trans-3-[4-(8-Chloro-5-methyl-5,6-dihydro-4H-2,3,5,10b-tetraaza-benzoazulen-1-yl)-cyclohexyloxy]-benzo nitrile]	2.69
Cc1cccc(O[C@H]2CC[C@H](c3nnc4n3-c3ccc(Cl)cc3CN(C(=O)OC(C)(C)C)C4)CC2)c1 [Example 35, trans-8-Chloro-1-(4-m-tolyloxy-cyclohexyl)-4H,6H-2,3,5,10b-tetraaza-benzo[e]azulene-5-carboxylic acid tert-butyl ester]	4.9
Cc1cccc(O[C@H]2CC[C@H](c3nnc4n3-c3ccc(Cl)cc3CNC4)CC2)c1 [Example 36, trans-8-Chloro-1-(4-m-tolyloxy-cyclohexyl)-5,6-dihydro-4H-2,3,5,10b-tetraaza-benzo[e]azulene hydrochloride]	7.59

From patent publication US8461152B2, “Arylcyclohexylethers of dihydrotetraazabenzoazulenes” (Hoffmann-La Roche Inc., priority 2008, dated 2013)
